Laboratory results: patent US20190374563A1, “TREATMENT OF KLEBSIELLA PNEUMONIAE INFECTIONS WITH ANTIBACTERIAL AMINOGLYCOSIDE COMPOUNDS” (Achaogen, Inc., priority 2009, published 2019)
Converted amounts (≈) assume the structure as drawn. Where two headings read alike, the source gives them in different places.

Columns and labels:
E. coli ATCC 25922 = assay: murine septicemia model of infection; assay type: in vivo; settings: mice, single SC or IV dose 1 hour after IP challenge, mortality for 7 days; ED50 values are mg/kg
Method: (§1) Two models were run on each compound, using E. coli and P. aeruginosa QC bacterial strains. Both studies employed the same design. […] At 1 hour after bacterial challenge, the mice received a single SC or IV dose of vehicle or test substance to assess in vivo anti-infective activity. Mortality was recorded once daily for 7 days after bacterial inoculation.

P. aeruginosa ATCC 27853 = assay: murine septicemia model of infection; assay type: in vivo; settings: mice, single SC or IV dose 1 hour after IP challenge, mortality for 7 days; ED50 values are mg/kg
Method: as §1

[1] = test system: K. pneumoniae producing KPC (n = 25); assay: MIC by microdilution, clinical isolates; assay type: cell-based; settings: K. pneumoniae producing KPC (n = 25); for S (%), susceptible isolates: CLSI criteria, tigecycline US FDA criteria
Method: (§2) The in vitro activity of representative antibacterial aminoglycoside compounds against a collection of 102 K. pneumoniae clinical isolates collected from January 2006 to October 2007 at the University of Pittsburgh Medical Center, and three Cleveland institutions including University Hospitals Case Medical Center, the Cleveland Clinic, and the Louis Stokes Department of Veterans Affairs Medical Center was analyzed. The 102 K. pneumoniae isolates were selected based on a multidrug-resistant (MDR) phenotype (i.e., resistance to >3 antibiotic classes). Twenty-five isolates were KPC carbapenemase producing (KPC-Kp), and were part of a previous study where the β-lactamase background and clonality were characterized (see Endimiani, A., A. M. Hujer, F. Perez, C. R. Bethel, K. M. Hujer, J. Kroeger, M. Oethinger, D. L. Paterson, M. D. Adams, M. R. Jacobs, D. J. Diekema, G. S. Hall, S. G. Jenkins, L. B. Rice, F. C. Tenover, and R. A. Bonomo. 2009. Characterization of blaKPC-containing Klebsiella pneumoniae isolates detected in different institutions in the Eastern USA. J Antimicrob Chemother 63:427-37).
(§3) Minimum inhibitory concentrations (MICs) were performed by microdilution method using cation-adjusted Mueller-Hinton broth, according to the Clinical and Laboratory Standards Institute (CLSI) criteria (see CLSI. 2006. Methods for dilution antimicrobial susceptibility tests for bacteria that grow aerobically; approved standard-Seventh edition. Clinical and Laboratory Standard Institute, Wayne, Pa. CLSI document M7-A7). These MIC assays were conducted following the same protocol as set forth in Example 110. […] The following ATCC control strains were used: Escherichia coli ATCC 25922, Pseudomonas aeruginosa ATCC 27853, and K. pneumoniae ATCC 700603.

[2] = test system: multidrug-resistant (MDR) K. pneumoniae isolates (n = 102); assay: MIC by microdilution, clinical isolates; assay type: cell-based; settings: for S (%), susceptible isolates: CLSI criteria, tigecycline US FDA criteria
Method: as §2, §3

[3] = test system: E. coli ATCC 25922 (AECO001); assay: MIC assay, CLSI broth microdilution; assay type: cell-based; set-up: MIC AECO001: unit not given here; settings: Table 3; E. coli ATCC25922
Procedure, shortened: (§4)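 MICs were read after 20 hours at 35° C in ambient air, with a final inoculum of 5×10^5 CFU/mL from saline-suspended overnight colonies. Serial two-fold dilutions in Mueller Hinton Broth followed the CLSI reference method (M7-A7), with QC strains E. coli ATCC 25922, P. aeruginosa ATCC 27853 and S. aureus ATCC 29213.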

[4] = test system: A. calcoaceticus AACA005, AAC(6′)-I; assay: MIC assay, aminoglycoside resistant strain; assay type: cell-based; set-up: unit not given beside the values; settings: Table 3; A. calcoaceticus AAC(6′)-I
Method: (§5) Minimum inhibitory concentrations (MIC) were determined by reference Clinical and Laboratory Standards Institute (CLSI) broth microdilution methods per M7-A7 [2006]. Quality control ranges utilizing E. coli ATCC 25922, P. aeruginosa ATCC 27853 and S. aureus ATCC 29213, and interpretive criteria for comparator agents were as published in CLSI M100-S17 [2007]. Briefly, serial two-fold dilutions of the test compounds were prepared at 2× concentration in Mueller Hinton Broth. The compound dilutions were mixed in 96-well assay plates in a 1:1 ratio with bacterial inoculum. The inoculum was prepared by suspension of a colony from an agar plate that was prepared the previous day. Bacteria were suspended in sterile saline and added to each assay plate to obtain a final concentration of 5×10^5 CFU/mL. The plates were incubated at 35° C. for 20 hours in ambient air.
(§6) These MIC assays were conducted following the same protocol as set forth in Example 110. As shown, substituted sisomicin derivatives with groups other than methyl at the 6′-position have improved activity against strains expressing the AAC6′-modifying enzymes.

[5] = test system: E. coli AECO040, AAC(6′)-I; assay: MIC assay, aminoglycoside resistant strain; assay type: cell-based; set-up: unit not given beside the values; settings: Table 3; E. coli AAC(6′)-I
Method: as §5, §6

[6] = test system: P. aeruginosa ATCC 27853 (APAE001); assay: MIC assay, CLSI broth microdilution; assay type: cell-based; settings: Pseudomonas aeruginosa
Procedure, shortened: as §4

Row | Compound | ED50/MIC E. Coli (E. coli ATCC 25922) | ED50/MIC P. aeruginosa (P. aeruginosa ATCC 27853) | MIC AECO001 [3] | MIC AACA005 [4] | MIC AECO040 [5] | also measured
1 | NCC[C@H](O)C(=O)N[C@@H]1C[C@H](N)[C@@H](O[C@H]2O[C@H](CN)[C@@H](O)[C@H](O)[C@H]2O)[C@H](O)[C@H]1O[C@H]1O[C@H](CO)[C@@H](O)[C@H](N)[C@H]1O [Amikacin, amikacin] | 1.5 | 13 |  |  |  | S (%), susceptible isolates [1]: 48.0%; S (%), susceptible isolates ([1]; listed as amikacin): 48%; MIC50 ([1]; Klebsiella pneumoniae, read-out: MIC50): 32 µg/mL (≈ 54.6 µM); MIC90 ([1]; Klebsiella pneumoniae, read-out: MIC90): 32 µg/mL (≈ 54.6 µM); MIC50 ([2]; Klebsiella pneumoniae, Total MDR K. pneumoniae isolates (n = 102), read-out: MIC50): 2 µg/mL (≈ 3.42 µM); MIC90 ([2]; Klebsiella pneumoniae, Total MDR K. pneumoniae isolates (n = 102), read-out: MIC90): 32 µg/mL (≈ 54.6 µM); isolates fully resistant (MICs of 64 μg/ml) ([2]; MDR K. pneumoniae isolates (n = 102)): five; S (%), susceptible isolates ([2]; Total MDR K. pneumoniae isolates (n = 102)): 78.4%; S (%), susceptible isolates ([2]; Total MDR K. pneumoniae isolates (n = 102), listed as amikacin): 78%
2 | CN[C@@H]1[C@@H](O)[C@@H](O[C@@H]2[C@@H](O)[C@H](O[C@H]3OC(CNCCO)=CC[C@H]3N)[C@@H](N)C[C@H]2NC(=O)[C@@H](O)CN)OC[C@]1(C)O [Example 16, 6′-(2-Hydroxy-ethyl)-1-(3-amino-2(S)-hydroxy-propionyl)-sisomicin] | 1 | 3 |  |  |  | 
3 | CNCC1=CC[C@@H](N)[C@@H](O[C@H]2C(O)[C@@H](O[C@H]3OC[C@](C)(O)[C@H](NC)[C@H]3O)[C@H](N)C[C@@H]2N)O1 (stereo partly drawn) [Mono-substituted Compound 1] |  |  | 1 | 2 | >64 | 
4 | CN[C@@H]1[C@@H](O)[C@@H](O[C@@H]2[C@@H](O)[C@H](O[C@H]3OC(CN)=CC[C@H]3NC(=N)N)[C@@H](N)C[C@H]2NC(=O)[C@@H](O)CCN)OC[C@]1(C)O [Example 103, 2′-Guanidinium-1-(4-amino-2(S)-hydroxy-butyryl)-sisomicin] | 2 | 6 |  |  |  | 
5 | CN[C@@H]1[C@@H](O)[C@@H](O[C@@H]2[C@@H](O)[C@H](O[C@H]3OC(CNCCCN)=CC[C@H]3N)[C@@H](N)C[C@H]2NC(=O)[C@@H](O)CN)OC[C@]1(C)O [Example 17, 6′-(3-Amino-propyl)-1-(3-amino-2(S)-hydroxy-propionyl)-sisomicin] | 1 | 5 |  |  |  | MIC ([6]; Table 1, APAE001 is ATCC27853, read-out: MIC APAE001): 1 to 16 µg/mL (≈ 1.69 to 27 µM)
6 | CN[C@@H]1[C@@H](O)[C@@H](O[C@@H]2C(O)[C@H](O[C@H]3OC(CNCC4CCNCC4)=CC[C@H]3N)[C@@H](N)C[C@H]2N)OC[C@]1(C)O (stereo partly drawn) [Mono-substituted Compound 3] |  |  | 0.5 | 0.5 | 0.25 | 
7 | CN[C@@H]1[C@@H](O)[C@@H](O[C@@H]2C(O)[C@H](O[C@H]3OC(CNCCCN)=CC[C@H]3N)[C@@H](N)C[C@H]2N)OC[C@]1(C)O (stereo partly drawn) [Mono-substituted Compound 4] |  |  | 2 | 1 | 16 | 
8 | CN[C@@H]1[C@@H](O)[C@@H](O[C@@H]2[C@@H](O)[C@H](O[C@H]3OC(CNCC4CCNCC4)=CC[C@H]3N)[C@@H](N)C[C@H]2NC(=O)[C@@H](O)CN)OC[C@]1(C)O [Example 15, 6′-(Methyl-piperidin-4-yl)-1-(3-amino-2(S)-hydroxy-propionyl)-sisomicin] | <1 | 1 |  |  |  | MIC ([6]; ATCC27853, read-out: MIC APAE001): 1 to 16 µg/mL (≈ 1.58 to 25.3 µM)
9 | CN[C@@H]1C(O)[C@@H](O[C@@H]2[C@@H](O)[C@H](OC3OC(CN)=CC[C@H]3N)[C@@H](N)C[C@H]2NC(=O)C2(O)CNC2)OC[C@]1(C)O (stereo partly drawn) [Mono-substituted Compound 7] |  |  | 1 | 32 | 4 | 
10 | CN[C@@H]1C(O)[C@@H](O[C@@H]2[C@@H](O)[C@H](OC3OC(CN)=CC[C@H]3N)[C@@H](N)C[C@H]2NC(=O)[C@@H](O)CN)OC[C@]1(C)O (stereo partly drawn) [Mono-substituted Compound 5] |  |  | 0.5 | 32 | 8 | 
11 | CN[C@@H]1[C@@H](O)[C@@H](O[C@@H]2C(O)[C@H](O[C@H]3OC(CNCC4CC4)=CC[C@H]3N)[C@@H](N)C[C@H]2N)OC[C@]1(C)O (stereo partly drawn) [Mono-substituted Compound 2] |  |  | 1 | 4 | 1 | 
12 | CN[C@@H]1[C@@H](O)[C@@H](O[C@@H]2[C@@H](O)[C@H](O[C@H]3OC(CN)=CC[C@H]3NC3CNC3)[C@@H](N)C[C@H]2NC(=O)[C@@H](O)CCN)OC[C@]1(C)O [Example 96, 2′-(Azetidin-3-yl)-1-(4-amino-2(S)-hydroxy-butyryl)-sisomicin] | <1 | 3 |  |  |  | 
13 | CN[C@@H]1[C@@H](O)[C@@H](O[C@@H]2[C@@H](O)[C@H](O[C@H]3OC(CNCCCN)=CC[C@H]3N)[C@@H](N)C[C@H]2NC(=O)C2(O)CNC2)OC[C@]1(C)O [Example 57] | 2 | 14 |  |  |  | 
14 | CN[C@@H]1C(O)[C@@H](O[C@@H]2[C@@H](O)[C@H](OC3OC(CN)=CC[C@H]3N)[C@@H](N)C[C@H]2NC(=O)[C@@H](O)CCN)OC[C@]1(C)O (stereo partly drawn) [Mono-substituted Compound 6] |  |  | 0.5 | 16 | 4 | 
15 | CN[C@@H]1[C@@H](O)[C@@H](O[C@@H]2[C@@H](O)[C@H](O[C@H]3OC(CN)=CC[C@H]3N)[C@@H](N)C[C@H]2N)OC[C@]1(C)O [Sisomicin] |  |  | 0.5 | 32 | 32 | 
16 | CN[C@@H]1[C@@H](O)[C@@H](O[C@@H]2[C@@H](O)[C@H](O[C@H]3OC(CNCC(O)CN)=CC[C@H]3N)[C@@H](N)C[C@H]2NC(=O)[C@@H](O)CN)OC[C@]1(C)O (stereo partly drawn) [Example 22, 6′-(3-Amino-2-hydroxy-propyl)-1-(3-amino-2(S)-hydroxy-propionyl)-sisomicin] | 1 | 8 |  |  |  | 
